Data as given in patent US20230348426A1, “OXOPYRROLIDINE FPR2 AGONISTS” (Bristol-Myers Squibb Company, priority 2020, published 2023).

Tests used:
[1] = molecular target: human FPR1 (Homo sapiens (Human), UniProt P21462); test: FPR1 cyclic adenosine monophosphate (cAMP) assay; format: cell-based; settings: CHO cells overexpressing human FPR1; forskolin 10 µM; inhibition of cAMP production; read-out: hFPR1 cAMP EC50
From the text: (§1) N-formyl peptide receptors (FPRs) are a family of chemo attractant receptors that facilitate leukocyte response during inflammation. FPRs belong to the seven-transmembrane G protein-coupled receptor superfamily and are linked to inhibitory G-proteins (Gi). Three family members (FPR1, FPR2 and FPR3) have been identified in humans and are predominantly found in myeloid cells with varied distribution and have also been reported in multiple organs and tissues. After agonist binding, the FPRs activate a multitude of physiological pathways, such as intra cellular signaling transduction, Ca^2+ mobilization and transcription. The family interacts with a diverse set of ligands that includes proteins, polypeptides and fatty acid metabolites which activate both pro-inflammatory and pro-resolution downstream responses. FPR2 and FPR1 Cyclic Adenosine Monophosphate (cAMP) Assays were used to measure the activity of the compounds in this patent.
FPR2 and FPR1 Cyclic Adenosine Monophosphate (cAMP) Assays. A mixture of forskolin (5 µM final for FPR2 or 10 µM final for FPR1) and IBMX (200 µM final) were added to 384-well Proxiplates (Perkin-Elmer) pre-dotted with test compounds in DMSO (1% final) at final concentrations in the range of 0.020 nM to 100 µM. Chinese Hamster Ovary cells (CHO) overexpressing human FPR1 or human FPR2 receptors were cultured in F-12 (Ham’s) medium supplemented with 10% qualified FBS, 250 µg/ml zeocin and 300 µg/ml hygromycin (Life Technologies). Reactions were initiated by adding 2,000 human FPR2 cells per well or 4,000 human FPR1 cells per well in Dulbecco’s PBS (with calcium and magnesium) (Life Technologies) supplemented with 0.1% BSA (Perkin-Elmer). The reaction mixtures were incubated for 30 min at room temperature. The level of intracellular cAMP was determined using the HTRF HiRange cAMP assay reagent kit (Cisbio) according to manufacturer’s instruction. Solutions of cryptate conjugated anti-cAMP and d2 flurorophore-labelled cAMP were made in a supplied lysis buffer separately. Upon completion of the reaction, the cells were lysed with equal volume of the d2-cAMP solution and anti-cAMP solution. […] The potency and activity of a compound to inhibit cAMP production was then determined by fitting to a 4-parametric logistic equation from a plot of cAMP level versus compound concentrations.

[2] = molecular target: human FPR2 (Homo sapiens (Human), UniProt P25090); test: FPR2 cyclic adenosine monophosphate (cAMP) assay; format: cell-based; settings: CHO cells overexpressing human FPR2; forskolin 5 µM; inhibition of cAMP production; read-out: hFPR2 cAMP2 EC50
Sequence of human FPR2 (P25090 whole entry): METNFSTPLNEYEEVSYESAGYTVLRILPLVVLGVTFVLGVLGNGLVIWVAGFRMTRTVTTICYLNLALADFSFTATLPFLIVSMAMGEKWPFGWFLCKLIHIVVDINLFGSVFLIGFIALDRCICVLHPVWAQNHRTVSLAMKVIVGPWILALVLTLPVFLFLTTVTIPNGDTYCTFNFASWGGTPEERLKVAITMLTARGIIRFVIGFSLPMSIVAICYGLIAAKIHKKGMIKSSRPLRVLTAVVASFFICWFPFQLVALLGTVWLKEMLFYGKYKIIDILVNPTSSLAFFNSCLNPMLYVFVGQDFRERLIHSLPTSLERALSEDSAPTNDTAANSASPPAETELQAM
From the text: as §1
FPR2 and FPR1 Cyclic Adenosine Monophosphate (cAMP) Assays. A mixture of forskolin (5 µM final for FPR2 or 10 µM final for FPR1) and IBMX (200 µM final) were added to 384-well Proxiplates (Perkin-Elmer) pre-dotted with test compounds in DMSO (1% final) at final concentrations in the range of 0.020 nM to 100 µM. Chinese Hamster Ovary cells (CHO) overexpressing human FPR1 or human FPR2 receptors were cultured in F-12 (Ham’s) medium supplemented with 10% qualified FBS, 250 µg/ml zeocin and 300 µg/ml hygromycin (Life Technologies). Reactions were initiated by adding 2,000 human FPR2 cells per well or 4,000 human FPR1 cells per well in Dulbecco’s PBS (with calcium and magnesium) (Life Technologies) supplemented with 0.1% BSA (Perkin-Elmer). The reaction mixtures were incubated for 30 min at room temperature. The level of intracellular cAMP was determined using the HTRF HiRange cAMP assay reagent kit (Cisbio) according to manufacturer’s instruction. Solutions of cryptate conjugated anti-cAMP and d2 flurorophore-labelled cAMP were made in a supplied lysis buffer separately. Upon completion of the reaction, the cells were lysed with equal volume of the d2-cAMP solution and anti-cAMP solution. After a 1-h room temperature incubation, time-resolved fluorescence intensity was measured using the Envision (Perkin-Elmer) at 400 nm excitation and dual emission at 590 nm and 665 nm. A calibration curve was constructed with an external cAMP standard at concentrations ranging from 1 µM to 0.1 pM by plotting the fluorescent intensity ratio from 665 nm emission to the intensity from the 590 nm emission against cAMP concentrations. The potency and activity of a compound to inhibit cAMP production was then determined by fitting to a 4-parametric logistic equation from a plot of cAMP level versus compound concentrations.

Sequence of human FPR1 (P21462 whole entry): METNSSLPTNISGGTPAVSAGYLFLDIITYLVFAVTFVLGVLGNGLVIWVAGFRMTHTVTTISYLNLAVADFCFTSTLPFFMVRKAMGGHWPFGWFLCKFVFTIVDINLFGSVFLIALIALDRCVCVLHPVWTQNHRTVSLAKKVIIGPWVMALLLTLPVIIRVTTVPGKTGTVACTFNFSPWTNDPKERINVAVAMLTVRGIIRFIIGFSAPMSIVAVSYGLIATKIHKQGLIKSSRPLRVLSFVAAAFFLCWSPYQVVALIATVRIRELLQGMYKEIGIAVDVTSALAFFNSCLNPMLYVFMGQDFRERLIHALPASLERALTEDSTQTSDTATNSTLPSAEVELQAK

| Compound | EC50 [1] [nM] | EC50 [2] [nM] |
| --- | --- | --- |
| COc1cc(F)c([C@@H]2CN(c3c(C)ccn(CC(=O)N4CCOCC4)c3=O)C(=O)[C@H]2NC(=O)c2ccc(Cl)cc2)c(F)c1 [Example 379] | 320 | 2.6 |
| COc1cc(F)c([C@@H]2CN(CC3CC3)C(=O)[C@H]2NC(=O)c2ccc(OC(F)F)cc2)c(F)c1 [Example 3, N-((3S,4R)-1-(cyclopropylmethyl)-4-(2,6-difluoro-4-methoxyphenyl)-2-oxopyrrolidin-3-yl)-4-(difluoromethoxy)benzamide] | 1700 | 29 |
| COc1cc(F)c([C@@H]2CN(c3c(C)ccn(C4CCS(=O)(=O)CC4)c3=O)C(=O)[C@H]2NC(=O)c2ccc(OC(F)(F)F)cc2)c(F)c1 [Example 627] | 2 | 8.6 |
| O=C(N[C@@H]1C(=O)N(c2cccn(CCC(F)(F)F)c2=O)C[C@H]1c1ccc(Cl)cc1)c1ccc(OC(F)F)cc1 [Example 72] | 5.7 | 1.9 |
| COCC(CO)n1nccc(N2C[C@@H](c3c(F)cc(OC)cc3F)[C@H](NC(=O)c3ccc(Cl)cc3)C2=O)c1=O (stereo partly drawn) [Example 477] | 13 | 1 |
| COc1cc(F)c([C@@H]2CN(c3cccn(CC(O)CO)c3=O)C(=O)[C@H]2NC(=O)c2ccc(OC(F)(F)F)cc2)c(F)c1 (stereo partly drawn) [Example 679] | 28 | 6 |
| COc1ccc([C@@H]2CN(c3c(C)ccn(C(F)F)c3=O)C(=O)[C@H]2NC(=O)c2ccc(OC(F)F)cc2)cc1 [Example 384] | 1 | 1.9 |
| COc1cc(F)c([C@@H]2CN(c3nccc(N4CCN(S(C)(=O)=O)CC4)c3C(F)(F)F)C(=O)[C@H]2NC(=O)c2ccc(Cl)cc2)c(F)c1 [Example 224] | 1900 | 6.1 |
| COc1ccc([C@@H]2CN(c3c(C)ccn(CC4CC4)c3=O)C(=O)[C@H]2NC(=O)c2ccc(OC(F)(F)F)cc2)cc1 [Example 57] | 0.066 | 1.4 |
| COc1cc(F)c([C@@H]2CN(c3c(C)ccn(C4COC4)c3=O)C(=O)[C@H]2NC(=O)c2ccc(OC(F)(F)F)cc2)c(F)c1 [Example 463] | 6 | 3.9 |
| COc1cc(F)c([C@@H]2CN(c3cccn(CC(C)(CO)CO)c3=O)C(=O)[C@H]2NC(=O)c2ccc(OC(F)(F)F)cc2)c(F)c1 [Example 254] | 52 | 7 |
| COCC(CN)n1cccc(N2C[C@@H](c3c(F)cc(OC)cc3F)[C@H](NC(=O)c3ccc(OC(F)(F)F)cc3)C2=O)c1=O (stereo partly drawn) [Example 194] | 150 | 5.1 |
| COc1ccc([C@@H]2CN(c3cccn(CC(C)O)c3=O)C(=O)[C@H]2NC(=O)c2ccc(OC(F)(F)F)cc2)c(F)c1 (stereo partly drawn) [Example 435] | 4 | 2.8 |
| COc1cc(F)c([C@@H]2CN(c3c(C)ccn(CC4CCOCC4)c3=O)C(=O)[C@H]2NC(=O)c2ccc(OC(F)(F)F)cc2)c(F)c1 [Example 456] | 1 | 2.8 |
| COc1ccc([C@@H]2CN(c3c(C)ccn(CC4CCOCC4)c3=O)C(=O)[C@H]2NC(=O)c2ccc(OC(F)(F)F)cc2)cc1 [Example 700] | 0.67 | 3 |
| COc1cc(F)c([C@@H]2CN(c3cccn(CCN4CCOCC4)c3=O)C(=O)[C@H]2NC(=O)c2ccc(OC(F)(F)F)cc2)c(F)c1 [Example 278] | 340 | 8.1 |
| COc1cc(F)c([C@@H]2CN(c3nc(Cl)ccc3C#N)C(=O)[C@H]2NC(=O)c2ccc(OC(F)F)cc2)c(F)c1 [Example 6] | 650 | 5.1 |
| COCC(CO)n1cccc(N2C[C@@H](c3ccc(Cl)cc3)[C@H](NC(=O)c3ccc(OC(F)F)cc3)C2=O)c1=O (stereo partly drawn) [Example 118] | 4.1 | 3.1 |

| Compound | EC50 [1] [nM] | EC50 [2] [nM] |
| --- | --- | --- |
| COc1cc(C2CCNCC2)nc(N2C(=O)[C@@H](NC(=O)c3ccc(OC(F)F)cc3)[C@H](c3c(F)cc(OC)cc3F)[C@@H]2C)c1 [Example 529] | > 5000 | 6.7 |
| COc1cc(F)c([C@@H]2CN(c3cccn(CC(OC)C(F)(F)F)c3=O)C(=O)[C@H]2NC(=O)c2ccc(OC(F)(F)F)cc2)c(F)c1 (stereo partly drawn) [Example 147] | 2.2 | 3.8 |
| COc1cc(F)c([C@@H]2CN(c3cc(C)cc(C4CCN(CCO)CC4)n3)C(=O)[C@H]2NC(=O)c2ccc(OC(F)F)cc2)c(F)c1 [Example 715] | > 5000 | 5.5 |
| CCn1cccc(N2C[C@@H](c3c(F)cc(OC)cc3F)[C@H](NC(=O)c3ccc(C(F)(F)F)cc3)C2=O)c1=O [Example 159] | 74 | 4.1 |
| COc1cc(F)c([C@@H]2CN(c3cccn(CCF)c3=O)C(=O)[C@H]2NC(=O)c2ccc(OC(F)F)cc2)c(F)c1 [Example 258] | 83 | 7.4 |
| COCC(CO)n1cccc(N2C(=O)[C@@H](NC(=O)c3ccc(OC(F)F)cc3)[C@H](c3c(F)cc(OC)cc3F)[C@@H]2C)c1=O (stereo partly drawn) [Example 217] | 42 | 5.7 |
| COc1cc(F)c([C@@H]2CN(c3c(C)ccn(CCS(C)(=O)=O)c3=O)C(=O)[C@H]2NC(=O)c2ccc(OC(F)(F)F)cc2)c(F)c1 [Example 469] | 2 | 1.4 |
| COc1ccc([C@@H]2CN(c3cccn(CC(OC)C(F)(F)F)c3=O)C(=O)[C@H]2NC(=O)c2ccc(Cl)cc2)c(F)c1 (stereo partly drawn) [Example 380] | 3 | 1.8 |
| COc1cc(F)c([C@@H]2CN(c3ccc(CO)[nH]c3=O)C(=O)[C@H]2NC(=O)c2ccc(OC(F)F)cc2)c(F)c1 [Example 139] | 570 | 3.5 |
| COc1cc(F)c([C@H]2[C@H](NC(=O)c3ccc(OC(F)F)cc3)C(=O)N(c3cccc(C4CCN(C)CC4)n3)[C@H]2C)c(F)c1 [Example 523] | 3600 | 1.4 |
| COc1cc(N2C[C@@H](C)N(C)[C@@H](C)C2)nc(N2C[C@@H](c3c(F)cc(OC)cc3F)[C@H](NC(=O)c3ccc(Cl)cc3)C2=O)c1 [Example 180] | > 10000 | 4.7 |
| COc1cc(F)c([C@@H]2CN(c3cc(F)cc(C(C)(C)O)c3)C(=O)[C@H]2NC(=O)c2ccc(Cl)cc2)c(F)c1 [Example 267] | 1600 | 7.7 |
| O=C(N[C@@H]1C(=O)N(c2cccn(CC(O)C(F)(F)F)c2=O)C[C@H]1c1ccc(Cl)cc1)c1ccc(OC(F)(F)F)cc1 (stereo partly drawn) [Example 609] | 28 | 1.8 |
| COc1cc(F)c([C@@H]2CN(c3cc(C(F)(F)F)cn(C)c3=O)C(=O)[C@H]2NC(=O)c2ccc(OC(F)F)cc2)c(F)c1 [Example 168] | 1600 | 4.3 |
| COc1ccc([C@@H]2CN(c3c(C)ccn(CCO)c3=O)C(=O)[C@H]2NC(=O)c2ccc(OC(F)F)cc2)c(F)c1 [Example 367] | 3 | 1.2 |
| COc1cc(F)c([C@@H]2CN(c3nc(N4C[C@@H](C)N(C)[C@@H](C)C4)ccc3OC)C(=O)[C@H]2NC(=O)c2ccc(OC(F)F)cc2)c(F)c1 [Example 225] | 630 | 6.2 |
| COCC(CO)n1cccc(N2C[C@@H](c3ccc(OC)cc3F)[C@H](NC(=O)c3ccc(OC(F)(F)F)cc3)C2=O)c1=O (stereo partly drawn) [Example 437] | 1 | 1 |
| COc1cc(F)c([C@@H]2CN(c3c(C)ccn(C4CCS(=O)(=O)C4)c3=O)C(=O)[C@H]2NC(=O)c2ccc(OC(F)F)cc2)c(F)c1 (stereo partly drawn) [Example 701] | 27 | 12 |
